The test system of one data set is interferon (α). In words: Cytokine Induction in Human Cells: interferon. Type of data set: cell-based. The conditions noted are these: human PBMC, 18 to 24 hours, tested 30-0.014 μM, interferon (α) by ELISA; read-out: Lowest Effective Concentration (μM) Interferon. An outline of the steps:
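PBMC from healthy donors (final 2×10^6 cells/mL) incubated 18–24 h at 37° C, 5% CO2 with compound at 30–0.014 μM (3-fold dilutions, DMSO ≤1% final). Supernatant interferon (α) measured by ELISA; value is lowest concentration inducing interferon.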
In general terms: ELISA stands for enzyme-linked immunosorbent assay.

Data set [1] has as its system tumor necrosis factor (α). In words: Cytokine Induction in Human Cells: tumor necrosis factor. Details: key to Lowest Effective Concentration (μM) Tumor Necrosis Factor: A “*” indicates that no induction was seen at any of the tested concentrations. Type of data set: cell-based. The conditions noted are these: human PBMC, 18 to 24 hours, tested 30-0.014 μM, TNF by ELISA or IGEN assay; for minimal effective concentration: read-out: Lowest Effective Concentration (μM) Tumor Necrosis Factor. An outline of the steps: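 Human donor PBMC at a final 2×10^6 cells/mL in RPMI complete, exposed to compounds at 30–0.014 μM (3-fold dilutions, DMSO ≤1% final) for 18–24 h at 37 °C, 5% CO2. Supernatant TNF measured by ELISA or Origen immunoassay in pg/mL; value reported is lowest inducing concentration.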

The term melting point denotes the temperature of the solid-liquid transition. In turn, `CCCCc1nc2c(N)nc3ccccc3c2n1CCCCS(=O)(=O)c1ccc(F)cc1F` [Example 38, 2-butyl-1-{4-[(2,4-difluorophenyl)sulfonyl]butyl}-1H-imidazo[4,5-c]quinolin-4-amine] came in with a melting point of 190 to 193 °C. The minimal effective concentration in the data set on interferon (α) was 0.37 µM. For the same compound, the minimal effective concentration in data set [1] amounted to 1.11 µM.

Compound `CCCCc1nc2c(N)nc3ccccc3c2n1CCS(C)(=O)=O` [Example 67, 2-butyl-1-[2-(methylsulfonyl)ethyl]-1H-imidazo[4,5-c]quinolin-4-amine] had a melting point of 226 to 228 °C. For the same compound, the minimal effective concentration with interferon (α) worked out at 0.01 µM. Further, in data set [1], the minimal effective concentration is 0.04 µM.

In the case of `Cc1nc2c(N)nc3ccccc3c2n1CCCCCCS(C)(=O)=O` [Example 68, 2-methyl-1-[6-(methylsulfonyl)hexyl]-1H-imidazo[4,5-c]quinolin-4-amine], the melting point was 202 to 206 °C. In the data set on interferon (α), the minimal effective concentration was 0.014 µM. Moreover, in data set [1], the minimal effective concentration was determined as 0.12 µM.

As for `Nc1nc2ccccc2c2c1ncn2CCCCCS(=O)(=O)c1ccccc1` [Example 69, 1-[5-(phenylsulfonyl)pentyl]-1H-imidazo[4,5-c]quinolin-4-amine], the melting point lay within 171 to 172 °C. The minimal effective concentration with interferon (α) worked out at 1.11 µM. Also, the minimal effective concentration in data set [1] was 1.11 µM.

In turn, `COCCc1nc2c(N)nc3ccccc3c2n1CCCCCS(=O)(=O)c1ccccc1` [Example 70, 2-(2-methoxyethyl)-1-[5-(phenylsulfonyl)pentyl]-1H-imidazo[4,5-c]quinolin-4-amine] displayed a melting point of 172 to 175 °C. In addition, the minimal effective concentration in the data set on interferon (α) amounted to 0.01 µM. Also, in data set [1], the minimal effective concentration amounted to 0.01 µM.

`CS(=O)(=O)CCCCCn1c(C(F)(F)F)nc2c(N)nc3ccccc3c21` [Example 71, 1-[5-(methylsulfonyl)pentyl]-2-(trifluoromethyl)-1H-imidazo[4,5-c]quinolin-4-amine]: the melting point lay within 192 to 195 °C. Besides, in the data set on interferon (α), the minimal effective concentration came out at 30 µM. Also, the “Lowest Effective Concentration (μM) Tumor Necrosis Factor” value in data set [1] is listed as “*”.
